From patent US9561231B2 (AbbVie Inc., priority 2012, dated 2017)
Read-outs that look alike come from different tables or passages of the source.

What was measured:
[1] = test system: breast cancer cell line MX-1; assay: MX-1 cell line proliferation assay (3-day); type: cell-based; conditions: MX-1 cells, Cell Titer Glo, read-out: Cellular proliferation: EC50
Protocol: The impact of compounds of the Examples on cancer cell proliferation was determined using the breast cancer cell line MX-1 (ATCC) in a 3-day proliferation assay. MX-1 cells were maintained in RPMI supplemented with 10% FBS at 37° C. and an atmosphere of 5% CO2. For compound testing, MX-1 cells were plated in 96-well black bottom plates at a density of 5000 cells/well in 90 μL of culture media and incubated at 37° overnight to allow cell adhesion and spreading. Compound dilution series were prepared in DMSO via a 3-fold serial dilution from 3 mM to 0.1 μM. The DMSO dilution series were then diluted 1:100 in phosphate buffered saline, and 10 μL of the resulted solution were added to the appropriate wells of the MX-1 cell plate. The final compound concentrations in the wells were 3, 1, 0.3, 0.1, 0.03, 0.01, 0.003, 0.001, 0.0003 and 0.0001 μM.
Luminescence readings from the Cell Titer Glo assay were normalized to the DMSO treated cells and analyzed using the GraphPad Prism software with sigmoidal curve fitting to obtain EC50s.

[2] = biological target: T1, second (BD2: amino acids E352-E168) bromodomain of BRD4 (Homo sapiens, UniProt O60885); assay: TR-FRET bromodomain binding assay, BRD4 BD2; conditions: Ki calculated from IC50, probe Kd and probe concentration, read-out: TR-FRET Binding Ki: BRD4 (BDII_E352-M457)
T1 construct: protocol
Outline: (§1)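 Values are Ki: IC50s from TR-FRET competition with an Alexa647-labeled BET-inhibitor probe were converted using probe Kd and probe concentration. Purified His-tagged bromodomain; pH 6.0 sodium phosphate buffer.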

[3] = biological target: T2, first (BD1: amino acids K57-E168) bromodomain of BRD4 (Homo sapiens, UniProt O60885); assay: TR-FRET bromodomain binding assay, BRD4 BD1; conditions: Ki calculated from IC50, probe Kd and probe concentration, read-out: TR-FRET Binding Ki: BRD4 (BDI_K57-E168)
T2 construct: His-tagged first (BD1: amino acids K57-E168)
Outline: as §1

[4] = TR-FRET assay protocol (A-G, compound concentration range)
[5] = TR-FRET assay protocol (D, E or G) per compound

Row | Molecule | Ki [2, 4] | Ki [3, 4] | further results
1 | N-{4-(4-cyanophenoxy)-3-[1-methyl-6-oxo-4-(2,2,2-trifluoroethoxy)-1,6-dihydropyridin-3-yl]phenyl}ethanesulfonamide [Example 374] |  |  | EC50 ([1]; 72 hours with compound): 76.1 nM
2 | COc1cc(=O)n(C)nc1-c1cc(NS(=O)(=O)N(C)C)ccc1Oc1ccccc1 [Example 31, N′-[3-(4-methoxy-1-methyl-6-oxo-1,6-dihydropyridazin-3-yl)-4-phenoxyphenyl]-N,N-dimethylsulfuric diamide] | 46.5 nM |  | EC50 ([1]; Homo sapiens, MX1, 72 h incubation): 420 nM
3 | 1-(2-chloro-5-fluorophenyl)-N-[4-(2,4-difluorophenoxy)-3-(4-ethoxy-1-methyl-6-oxo-1,6-dihydropyridin-3-yl)phenyl]methanesulfonamide [Example 350] |  |  | EC50 ([1]; 72 h incubation): 1000 nM
4 | CCS(=O)(=O)c1ccc(Oc2ccc(F)cc2F)c(-c2cc(=O)n(C)cc2OCC(F)(F)F)c1 [Example 398, 4-[2-(2,4-difluorophenoxy)-5-(ethylsulfonyl)phenyl]-1-methyl-5-(2,2,2-trifluoroethoxy)pyridin-2(1H)-one] |  |  | EC50 ([1]; 72 hours with compound): 450 nM
5 | N-[4-(2,4-difluorophenoxy)-3-(4-ethoxy-1-methyl-6-oxo-1,6-dihydropyridin-3-yl)phenyl]-1-phenylmethanesulfonamide [Example 311] |  |  | EC50 ([1]; 72 h incubation): 1000 nM
6 | CCOc1cc(=O)n(C)cc1-c1cc(NS(=O)(=O)c2ccc(OC(F)(F)F)cc2)ccc1Oc1ccc(F)cc1F [Example 308, N-[4-(2,4-difluorophenoxy)-3-(4-ethoxy-1-methyl-6-oxo-1,6-dihydropyridin-3-yl)phenyl]-4-(trifluoromethoxy)benzenesulfonamide] | 65.9 nM | 318 nM | 
7 | CC(=O)c1ccc(F)c(-c2cc(=O)n(C)nc2-c2ccccc2Oc2ccccc2)c1 [Example 132, 5-(5-acetyl-2-fluorophenyl)-2-methyl-6-(2-phenoxyphenyl)pyridazin-3(2H)-one] | 8050 nM | > 13000 nM | 
8 | CCOc1cc(=O)n(C)cc1-c1cc(S(C)(=O)=O)ccc1NCc1ccc(F)cc1F [Example 409, 5-{2-[(2,4-difluorobenzyl)amino]-5-(methylsulfonyl)phenyl}-4-ethoxy-1-methylpyridin-2(1H)-one] |  |  | Ki [3, 5]: 2010 nM; Ki [2, 5]: 1100 nM
9 | Cc1n[nH]c(C)c1-c1cc(=O)n(C)nc1-c1ccccc1Oc1ccccc1 [Example 115, 5-(3,5-dimethyl-1H-pyrazol-4-yl)-2-methyl-6-(2-phenoxyphenyl)pyridazin-3(2H)-one] | 6940 nM | 11100 nM | 
10 | Cn1nc(-c2ccccc2Oc2ccccn2)ccc1=O [Example 6, 2-methyl-6-[2-(pyridin-2-yloxy)phenyl]pyridazin-3(2H)-one] | 3170 nM | 4080 nM | 
11 | Cn1nc(-c2cc([N+](=O)[O-])ccc2Oc2ccccc2)ccc1=O [Example 9, 2-methyl-6-(5-nitro-2-phenoxyphenyl)pyridazin-3(2H)-one] | 9260 nM | 10500 nM | 
12 | Cn1nc(-c2ccccc2Oc2ccccc2)c(-c2ccc(NCc3ccccc3)nc2)cc1=O [Example 164, 5-[6-(benzylamino)pyridin-3-yl]-2-methyl-6-(2-phenoxyphenyl)pyridazin-3(2H)-one] | 245 nM | 1510 nM | 
13 | Cn1nc(-c2ccccc2Oc2ccccc2)c(-c2ccc(C(=O)NC3CC3)cc2)cc1=O [Example 114, N-cyclopropyl-4-[1-methyl-6-oxo-3-(2-phenoxyphenyl)-1,6-dihydropyridazin-4-yl]benzamide] | 184 nM | 328 nM | 
14 | Cc1ccncc1-c1cc(=O)n(C)nc1-c1ccccc1Oc1ccccc1 [Example 207, 2-methyl-5-(4-methylpyridin-3-yl)-6-(2-phenoxyphenyl)pyridazin-3(2H)-one] | 11800 nM | 7020 nM | 
15 | Cn1nc(-c2ccccc2Oc2ccccc2)c(-c2ccnc(N3CCOCC3)c2)cc1=O [Example 153, 2-methyl-5-[2-(morpholin-4-yl)pyridin-4-yl]-6-(2-phenoxyphenyl)pyridazin-3(2H)-one] | 3090 nM | 5960 nM | 
16 | CN(C)CCCNC(=O)c1cccc(-c2cc(=O)n(C)nc2-c2ccccc2Oc2ccccc2)c1 [Example 163, N-[3-(dimethylamino)propyl]-3-[1-methyl-6-oxo-3-(2-phenoxyphenyl)-1,6-dihydropyridazin-4-yl]benzamide] | 366 nM | 1990 nM | 
17 | CCOc1cc(=O)n(C)cc1-c1cc(NS(=O)(=O)C[C@]23CC[C@H](CC2=O)C3(C)C)ccc1Oc1ccc(F)cc1F [Example 310, N-[4-(2,4-difluorophenoxy)-3-(4-ethoxy-1-methyl-6-oxo-1,6-dihydropyridin-3-yl)phenyl]-1-[(1S,4R)-7,7-dimethyl-2-oxobicyclo[2.2.1]hept-1-yl]methanesulfonamide] | 38.9 nM | 200 nM | 
18 | COC(=O)C1CCN(c2cc(=O)n(C)nc2-c2ccccc2Oc2ccccc2)C1 (stereo not drawn) [Example 48, methyl 1-[1-methyl-6-oxo-3-(2-phenoxyphenyl)-1,6-dihydropyridazin-4-yl]pyrrolidine-3-carboxylate] | 1080 nM | 9440 nM | 
19 | COc1ccc(Oc2ccccc2-c2nn(C)c(=O)cc2OC)cc1 [Example 35, 5-methoxy-6-[2-(4-methoxyphenoxy)phenyl]-2-methylpyridazin-3(2H)-one] | 1080 nM | 2390 nM | 
20 | CCOc1cc(=O)n(C)cc1-c1cc(NC(=O)CC(C)(C)C)ccc1Oc1ccc(F)cc1F [Example 296, N-[4-(2,4-difluorophenoxy)-3-(4-ethoxy-1-methyl-6-oxo-1,6-dihydropyridin-3-yl)phenyl]-3,3-dimethylbutanamide] | 104 nM | 195 nM | 
21 | COc1cc(=O)n(C)nc1-c1ccccc1Oc1ccc(F)c(Cl)c1 [Example 34, 6-[2-(3-chloro-4-fluorophenoxy)phenyl]-5-methoxy-2-methylpyridazin-3(2H)-one] | 3190 nM | 8170 nM | 
22 | CN(C)C(=O)c1cc(-c2cc(=O)n(C)nc2-c2ccccc2Oc2ccccc2)ccc1F [Example 155, 2-fluoro-N,N-dimethyl-5-[1-methyl-6-oxo-3-(2-phenoxyphenyl)-1,6-dihydropyridazin-4-yl]benzamide] | 6900 nM | 5520 nM | 
23 | Cn1nc(-c2ccccc2Oc2ccccc2)c(-c2cncc(NC3CCCC3)c2)cc1=O [Example 143, 5-[5-(cyclopentylamino)pyridin-3-yl]-2-methyl-6-(2-phenoxyphenyl)pyridazin-3(2H)-one] | 5470 nM | 3200 nM | 
24 | CCOC(=O)Nc1cc(-c2cc(S(=O)(=O)CC)ccc2OCC2CC2)cn(C)c1=O [Example 338, ethyl{5-[2-(cyclopropylmethoxy)-5-(ethylsulfonyl)phenyl]-1-methyl-2-oxo-1,2-dihydropyridin-3-yl}carbamate] | 702 nM | 114 nM | 
25 | CCO/C=C\c1cc(=O)n(C)cc1-c1cc(S(C)(=O)=O)ccc1NCC1CC1 [Example 337, 5-{2-[(cyclopropylmethyl)amino]-5-(methylsulfonyl)phenyl}-4-[(Z)-2-ethoxyethenyl]-1-methylpyridin-2(1H)-one] | 1830 nM | 611 nM | 
26 | CCOc1cc(=O)n(C)cc1-c1cc(NC(=O)c2ccc(N(CC)CC)cc2)ccc1Oc1ccc(F)cc1F [Example 303, 4-(diethylamino)-N-[4-(2,4-difluorophenoxy)-3-(4-ethoxy-1-methyl-6-oxo-1,6-dihydropyridin-3-yl)phenyl]benzamide] | 201 nM | 233 nM | 
27 | Cn1nc(-c2ccccc2Oc2ccccc2)c(-c2ccc3c(c2)OCCO3)cc1=O [Example 133, 5-(2,3-dihydro-1,4-benzodioxin-6-yl)-2-methyl-6-(2-phenoxyphenyl)pyridazin-3(2H)-one] | 159 nM | 782 nM | 
28 | COc1cc(=O)n(C)nc1-c1ccccc1OCC1CCCC1 [Example 46, 6-[2-(cyclopentylmethoxy)phenyl]-5-methoxy-2-methylpyridazin-3(2H)-one] | 18000 nM | 4390 nM | 
29 | Cn1nc(-c2ccccc2Oc2ccccc2)c(-c2ccc(C(=O)NCCC#N)cc2)cc1=O [Example 165, N-(2-cyanoethyl)-4-[1-methyl-6-oxo-3-(2-phenoxyphenyl)-1,6-dihydropyridazin-4-yl]benzamide] | 492 nM | 567 nM | 
